We go through 36 compounds from ChEMBL document CHEMBL1155074, “Is quantum mechanics necessary for predicting binding free energy?” (J Med Chem, 2008).

One experiment addresses Protease (Human immunodeficiency virus 1, UniProt Q9YQ12). In words: Inhibition of HIV1 protease.
Experiment [1] can be described thus: Inhibition of West Nile virus NS3 protease.

Square brackets hold non-standard residues; d marks the D form. Peptide text beside a SMILES is read from it. * marks the point of attachment. Phe(4-guanidino) = N=C(N)Nc1ccc(C[C@H](N)C(=O)O)cc1; Phe(4-Me) = Cc1ccc(C[C@H](N)C(=O)O)cc1; Phg = N[C@H](C(=O)O)c1ccccc1; Nle = CCCC[C@H](N)C(=O)O; Cbz = O=C(OCc1ccccc1)*; Bz = O=C(c1ccccc1)*; Bn = c1ccc(C*)cc1

Sequence of Protease (Q9YQ12 whole entry): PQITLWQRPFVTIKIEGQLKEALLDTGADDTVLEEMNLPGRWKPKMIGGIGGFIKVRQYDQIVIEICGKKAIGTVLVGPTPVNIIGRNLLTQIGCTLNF

`O=C1N(Cc2ccc3ccccc3c2)[C@H](Cc2ccccc2)[C@H](O)[C@@H](O)[C@@H](Cc2ccccc2)N1Cc1ccc2ccccc2c1` came in with a Ki at Protease of 0.05 nM. That is a picomolar value.

As for `CC1(C)S[C@H]([C@H](NC(=O)Cc2ccccc2)C(=O)NCc2ccccc2)N[C@H]1C(=O)N[C@H](Cc1ccccc1)[C@H](O)CC(=O)NCc1nc2ccccc2[nH]1`, the Ki at Protease was determined as 3.2 nM.

Regarding `CCCC[C@H](NCc1ccccc1)C(=O)N[C@@H](CCCCN)C(=O)N[C@@H](CCCNC(=N)N)C(=O)N[C@H](C=O)Cc1ccc(C#N)cc1`, the IC50 in experiment [1] was found to be 62 µM.

As for `CC(C)[C@H](NC(=O)N(C)Cc1ccccn1)C(=O)NC(Cc1ccccc1)[C@H](O)[C@H](O)[C@H](Cc1ccccc1)NC(=O)[C@@H](NC(=O)N(C)Cc1ccccn1)C(C)C` (stereo partly specified), the affinity at Protease corresponds to a Ki of 1100 nM.

Compound `N=C(N)NCCC[C@@H](C=O)NC(=O)[C@H](CCCNC(=N)N)NC(=O)[C@H](CCCCN)Nc1cccnc1` registered an IC50 in experiment [1] of 1 µM.

At Protease, `COC(=O)[C@@H](NC(=O)[C@@H](NC(=O)[C@H](C)N1CCC([C@H](C)NC(=O)[C@H](C)N)=C[C@@H](Cc2ccccc2)C1)C(C)C)C(C)C` registered a Ki of 437 nM.

In experiment [1], `CCCC[C@H](NCc1ccccc1)C(=O)N[C@@H](CCCCN)C(=O)N[C@@H](CCCNC(=N)N)C(=O)N[C@H](C=O)Cc1c[nH]c2ccccc12` registered an IC50 of 10 µM.

`CC(=O)N[C@@H](CCCCN)C(=O)N[C@@H](CCCNC(=N)N)C(=O)N[C@H](C=O)CCCNC(=N)N` (Ac-Lys-Arg-Arg-aldehyde) registered an IC50 in experiment [1] of 0.5 µM.

In the case of `CC(=O)N[C@@H](CCCCN)C(=O)N[C@@H](CCCCN)C(=O)N[C@H](C=O)CCCNC(=N)N` (Ac-Lys-Lys-Arg-aldehyde), in experiment [1], the midpoint of inhibition, the IC50, lay at 0.4 µM.

In the case of `C[C@H](NC(=O)c1ccccc1)C(=O)N[C@@H](CCCCN)C(=O)N[C@@H](CCCNC(=N)N)C(=O)N[C@H](C=O)CCCNC(=N)N` (Bz-AKRR-aldehyde), the IC50 in experiment [1] was 0.7 µM.

Regarding `N=C(N)NCCC[C@@H](C=O)NC(=O)[C@H](CCCNC(=N)N)NC(=O)c1ccccc1` (Bz-Arg-Arg-aldehyde), the IC50 in experiment [1] stood at 3.9 µM.

Take `N=C(N)NCCC[C@H](NC(=O)c1ccccc1)C(=O)N[C@H](C=O)CCCCN` (Bz-Arg-Lys-aldehyde): in experiment [1], inhibition was half-maximal at 57.5 µM (IC50).

In turn, `NCCCC[C@H](NC(=O)[C@H](Cc1ccccc1)NC(=O)c1ccccc1)C(=O)N[C@@H](CCCN=C(N)N)C(=O)N[C@H](C=O)CCCN=C(N)N` (Bz-FKRR-aldehyde) showed an IC50 in experiment [1] of 1.2 µM.

In experiment [1], `N=C(N)NCCC[C@@H](C=O)NC(=O)[C@H](CCCCNC(=O)OCc1ccccc1)NC(=O)c1ccccc1` (Bz-Lys(Cbz)-Arg-aldehyde) showed an IC50 of 436 µM.

In experiment [1], `N=C(N)NCCC[C@@H](C=O)NC(=O)[C@H](CCCNC(=N)N)NC(=O)[C@H](CCCCN)NC(=O)c1ccccc1` (Bz-Lys-Arg-Arg-aldehyde) gave an IC50 of 1.5 µM.

In turn, `N=C(N)NCCC[C@H](NC(=O)[C@H](CCCCN)NC(=O)c1ccccc1)C(=O)N[C@H](C=O)Cc1ccccc1` (Bz-Lys-Arg-Phe-aldehyde) gave an IC50 in experiment [1] of 71.1 µM.

Take `N=C(N)NCCC[C@H](NC(=O)[C@H](CCCCN)NC(=O)c1ccccc1)C(=O)N[C@H](C=O)Cc1ccc(OCc2ccccc2)cc1` (Bz-Lys-Arg-Tyr(Bn)-aldehyde): half-maximal inhibition in experiment [1] (IC50) was put at 11.8 µM.

Compound `N=C(N)NCCC[C@H](NC(=O)[C@H](CCCCN)NC(=O)c1ccccc1)C(=O)N[C@H](C=O)Cc1ccc(O)cc1` (Bz-Lys-Arg-Tyr-aldehyde) had an IC50 in experiment [1] of 14.6 µM.

Regarding `Cc1ccc(C[C@@H](C=O)NC(=O)[C@H](CCCNC(=N)N)NC(=O)[C@H](CCCCN)NC(=O)c2ccccc2)cc1` (Bz-Lys-Arg-[Phe(4-Me)]-aldehyde), the IC50 in experiment [1] was determined as 17.7 µM.

`N=C(N)NCCC[C@@H](C=O)NC(=O)[C@H](CCCCN)NC(=O)c1ccccc1` (Bz-Lys-Arg-aldehyde) returned an IC50 in experiment [1] of 1.4 µM.

`N=C(N)NCCC[C@@H](C=O)NC(=O)[C@H](CC(N)=O)NC(=O)[C@H](CCCCN)NC(=O)c1ccccc1` (Bz-Lys-Asn-Arg-aldehyde) came in with an IC50 in experiment [1] of 71.8 µM.

Take `Cc1ccc(C[C@@H](C=O)NC(=O)[C@H](CCCCNC(=O)OCc2ccccc2)NC(=O)[C@H](CCCCN)NC(=O)c2ccccc2)cc1` (Bz-Lys-Lys(Cbz)-[Phe(4-Me)]-aldehyde): the IC50 in experiment [1] turned out to be 43.3 µM.

On to `Cc1ccc(C[C@H](NC(=O)[C@H](CCCCN)NC(=O)c2ccccc2)C(=O)N[C@H](C=O)CCCNC(=N)N)cc1` (Bz-Lys-[Phe(4-Me)]-Arg-aldehyde), for which, in experiment [1], the IC50 was determined as 194 µM.

The compound `Cc1ccc(C[C@@H](C=O)NC(=O)[C@H](Cc2ccc(OCc3ccccc3)cc2)NC(=O)c2ccccc2)cc1` (Bz-Tyr(Bn)-[Phe(4-Me)]-aldehyde) returned an IC50 in experiment [1] of 12.7 µM.

In turn, `CCCC[C@H](NC(=O)c1ccccc1)C(=O)N[C@@H](C)C(=O)N[C@@H](CCCNC(=N)N)C(=O)N[C@H](C=O)CCCNC(=N)N` (Bz-[Nle]ARR-aldehyde) registered an IC50 in experiment [1] of 3.8 µM. This IC50 lies about 3.3-fold lower than the previous one.

As to `CCCC[C@H](NC(=O)c1ccccc1)C(=O)N[C@@H](Cc1ccccc1)C(=O)N[C@@H](CCCNC(=N)N)C(=O)N[C@H](C=O)CCCNC(=N)N` (Bz-[Nle]FRR-aldehyde), the IC50 in experiment [1] turned out to be 4.2 µM.

Compound `CCCC[C@H](NC(=O)c1ccccc1)C(=O)N[C@@H](CCCCN)C(=O)N[C@@H](Cc1ccccc1)C(=O)N[C@H](C=O)CCCNC(=N)N` (Bz-[Nle]KFR-aldehyde) had an IC50 in experiment [1] of 108 µM.

Consider `CCCC[C@H](NC(=O)c1ccccc1)C(=O)N[C@@H](CCCCN)C(=O)N[C@@H](CCCCN)C(=O)N[C@H](C=O)CCCNC(=N)N` (Bz-[Nle]KKR-aldehyde), for which the IC50 in experiment [1] was 1.9 µM.

`CCCC[C@H](NC(=O)c1ccccc1)C(=O)N[C@@H](CCCCN)C(=O)N[C@@H](CCC(N)=O)C(=O)N[C@H](C=O)CCCNC(=N)N` (Bz-[Nle]KQR-aldehyde) displayed an IC50 in experiment [1] of 1.7 µM.

In experiment [1], `CCCC[C@H](NC(=O)c1ccccc1)C(=O)N[C@@H](CCCCN)C(=O)N[C@@H](CCCNC(=N)N)C(=O)N[C@H](C=O)Cc1ccccc1` (Bz-[Nle]KRF-aldehyde) showed an IC50 of 110 µM.

The compound `CCCC[C@H](NC(=O)c1ccccc1)C(=O)N[C@@H](CCCCN)C(=O)N[C@@H](CCCNC(=N)N)C(=O)N[C@H](C=O)Cc1cnc[nH]1` (Bz-[Nle]KRH-aldehyde) displayed an IC50 in experiment [1] of 43.1 µM.

Consider `CCCC[C@H](NC(=O)c1ccccc1)C(=O)N[C@@H](CCCCN)C(=O)N[C@@H](CCCNC(=N)N)C(=O)N[C@H](C=O)CCCCN` (Bz-[Nle]KRK-aldehyde), for which half-maximal inhibition in experiment [1] (IC50) was put at 57.7 µM. This IC50 and that of the compound before are within 1.5-fold of each other.

With `CCCC[C@H](NC(=O)c1ccccc1)C(=O)N[C@@H](CCCCN)C(=O)N[C@@H](CCCNC(=N)N)C(=O)N[C@H](C=O)CCCNC(=N)N` (Bz-[Nle]KRR-aldehyde), in experiment [1], the IC50 stood at 4.1 µM.

Turning to `CCCC[C@H](NC(=O)c1ccccc1)C(=O)N[C@@H](CCCCN)C(=O)N[C@@H](CCCNC(=N)N)C(=O)N[C@H](C=O)Cc1ccc(NC(=N)N)cc1` (Bz-[Nle]KR[Phe(4-guanidino)]-aldehyde), in experiment [1], the IC50 came to 11.8 µM.

For `CCCC[C@H](NC(=O)c1ccccc1)C(=O)N[C@@H](CCCCN)C(=O)N[C@@H](CCCNC(=N)N)C(=O)N[C@H](C=O)c1ccccc1` (Bz-[Nle]KR[Phg]-aldehyde), the IC50 in experiment [1] amounted to 90.9 µM.

`CC(=O)N[C@H](C(=O)N[C@H](C(=O)N[C@@H](CC(C)C)[C@@H](O)CC(=O)N[C@@H](C)C(=O)N[C@@H](CC(C)C)C(O)CC(=O)O)C(C)C)C(C)C` (single isomer, unassigned) [ACETYLPEPSTATIN]: at Protease, the Ki came out at 1100 nM.

Broadly, the Ki is the dissociation constant of the complex between target and ligand, obtained from inhibition or displacement. Low values mean higher affinity, high ones lower affinity. As a reminder, the IC50 is the midpoint of a concentration-inhibition curve.
